Laboratory results as given in PMC7076650, “Co-Encapsulation of Mitoxantrone and β-Elemene in Solid Lipid Nanoparticles to Overcome Multidrug Resistance in Leukemia” (Pharmaceutics, 2020).
In brackets after ≈: the same amount, converted by molar mass. Read-outs that look alike come from different tables or passages of the source. Values belong to the compound of their own block, whether it stands above or below them.

Tests used:
[1] = test system: K562/DOX cells; test: Drug efflux study (DOX retained, flow cytometry), K562/DOX cells; assay type: cell-based; details: 10 μg/mL DOX loaded 4 h at 37 °C, then free medium
Description: In order to determine DOX efflux, K562 and K562/DOX cells were seeded and incubated in 12-well plates (1 × 10^5 cells/well). Different DOX formulations diluted with fresh medium to a concentration of 10 μg/mL were incubated with K562 and K562/DOX cells for 4 h at 37 °C. Subsequently, the cells were washed three times with ice-cold PBS, and then incubated with free medium at another 0.5, 1, 2, and 4 h. Ice-cold PBS was used to wash the cells at the end of each incubation time. The amounts of DOX retained in cells were determined by flow cytometry. The investigation was carried out in triplicate.

[2] = test system: K562/DOX xenografts tumors; test: In vivo antitumor activity in K562/DOX xenograft tumor model; set-up: species or system BALB/c nude mice; details: during treatment, compared with saline
Description: Mice bearing K562/DOX xenografts tumors were used to evaluate different MTO formulations through an in vivo antitumor efficacy study. K562/DOX cells at a concentration of 1 × 10^7 cells/mice with a volume of 200 μL were injected into the left axilla of BALB/c nude mice. After inoculation of cells, the growth of tumor was observed every two days by measuring the diameter of tumor with Vernier caliper. The tumor volume was calculated as (L × W^2)/2, where L and W are the tumor length and width, respectively. The anti-tumor evaluation was started when tumor volume reached about 100 mm^3, and this day was designated as day 0. Mice were randomly divided in five groups of six: Saline, MTO, MTO/βE, MTO-SLNs, and MTO/βE-SLNs (MTO dosage: 2 mg/kg and βE dosage: 4 mg/kg). The injections were carried out on days 0, 3, 6, 9, and 12 via the tail vein. In order to evaluate the treatment efficacy and safety, mice were sacrificed, and then tumors, heart, lung, liver, kidney, and spleen were dissected and fixed in 4% paraformaldehyde. In order to observe the pathological changes in different tissues, samples were cut and stained with hematoxylin and eosin (H&E) for histological analyses. An optical microscope (Leica DMI6000 B, Wetzlar, Germany) was used to take different photos. […]

[3] = test system: K562 cells; test: MTT cytotoxicity of MTO formulations in K562 cells; assay type: cell-based; details: n = 3; for IC50: Homo sapiens, K562, 48 h
Description: (§1) A cytotoxicity study of MTO, MTO/βE, MTO-SLNs, and MTO/βE-SLNs was also carried out by MTT assay in both K562 and K562/DOX cells lines. K562 cells and K562/DOX cells were seeded in a 96-well plate at a density of 5 × 10^3 cells/well and incubated for 48 h. Then, the cells were treated with MTO, MTO/βE, MTO-SLNs, and MTO/βE-SLNs at different doses (total amount of MTO in SLNs: 0.01, 0.1, 1, 2.5, 5, and 10 μg/mL in K562 cells and 0.1, 1, 10, 20, 40, and 80 μg/mL in K562/DOX cells for 48 h. After 48 h of incubation, cells were washed twice with cold PBS then incubated again for 4 h with 20 µL of MTT solution (5 mg/mL) added to each well. In order to solubilize the formazan crystals, 150 μL of DMSO per well was added to replace the medium. Finally, a Microplate Reader (Biotech) was used to measure the UV absorbance intensity at 570 nm. Each measurement was performed in triplicate. The cell viability percentage was evaluated using the following equation [4, 10]: Cell Viability (%)=ODsample /ODcontrol×100% where ODsample stands for the absorbance intensity of the cells treated with MTO, MTO/βE, MTO-SLNs, and MTO/βE-SLNs, while ODControl is the absorbance intensity of the untreated cells. The 50% inhibition concentrations (IC50) of different agents were calculated by Graph Pad Prism 5.0 software. All experiments were in triplicate and the results were given as means ± SD.
(§2) The different effects of drug formulations on K562/DOX were evaluated in the MDR reversal capacities through the index of drug resistance (IDR) and index of reversal of drug resistance (IRDR). IDR and IRDR were calculated as follows: IDR=IC50of other formulation against K562/DOX cells/IC50of MTO against K562 CellsIRDR=IC50of MTO against K562 cells /IC50of other formulation against K562/DOX cells

[4] = Pharmacokinetics after intravenous administration; assay type: in vivo, SD rats; details: rats; for AUC(0-t) / Cmax / half-life: male, Sprague-Dawley (SD), rat, plasma; for time post injection after which no drug was observed in plasma: free drug
Description: All the preparations were administered intravenously into the tail vein at a dose of 2 mg/kg (n = 6) for MTO and 4 mg/kg (n = 6) for βE. The blood samples were taken with a heparinized syringe at 0.5, 1, 2, 4, 6, 8, 12, and 24 h.

[5] = test system: K562/DOX cells; test: MTT cytotoxicity of MTO formulations in K562/DOX cells; assay type: cell-based; details: for IC50: Homo sapiens, K562/DOX cells, n = 3
Description: as §1, §2

[6] = test system: K562/DOX cells; test: MTT assay of combinatorial effects of MTO and βE in different mass ratios; assay type: cell-based; details: Homo sapiens, 48 h of incubation
Description: The combinatorial effects of MTO and βE in different ratios (w/w) were assessed against K562/DOX through MTT assay. With a density of 5 × 10^3 cells/well, K562/DOX cells were seeded in 96-well plates and incubated for 48 h, then treated with different concentrations of MTO dissolved in the free medium of RPMI-1640, βE dissolved in the mixture of (RPMI-1640 and 0.5% DMSO), and different combination mass ratios of MTO/βE (10:1, 5:1, 2:1, 1:1, 1:2, 1:5, and 1:10 w/w). After 48 h of incubation, cells were washed twice with cold PBS, and then incubated again for 4 h with 20 µL of MTT solution (5 mg/mL) added to each well. In order to solubilize the formazan crystals, 150 μL of DMSO per well was added to replace the medium. Finally, a Microplate Reader (Biotech, Winooski, VT, USA) was used to measure the UV absorbance intensity at 570 nm. Each measurement was performed in triplicate. The cell viability percentage was evaluated using the following equation: Cell Viability (%)=ODsample /ODcontrol×100% where ODSample stands for the optical density (absorbance intensity) of the cells treated with MTO, βE, or MTO in combination with βE, while ODControl is the absorbance intensity of the untreated cells. […] The synergistic effect of different combinations of MTO and βE was assessed through the calculation of combination index (CI) using the equation of Chou and Talalay. […]

[7] = test system: K562/DOX cells; test: Intracellular ATP production assay; assay type: cell-based; details: 8 h at 37 °C
Description: An ATP assay kit was used to measure the intracellular ATP. K562/DOX cells at a density of 1 × 10^5 cells/well were seeded and cultured in 12-well plates and incubated for 24 h. The cells were then incubated with fresh medium containing MTO, MTO/βE, MTO-SLNs, and MTO/βE-SLNs for 8 h at 37 °C. The cell ATP content was determined based on the manufacturer’s protocol. Briefly, the cells were collected and lysed by 200 μL of lysis solution to obtain the cell lysate, followed by centrifugation at 12,000× g for 5 min at 4 °C. Next, 20 μL of the supernatant of each sample was mixed with 100 μL of ATP testing solution in a black 96-well plate, and kept for 10 min. A microplate luminometer (Luminoskan, Thermo Scientific, Waltham, MA, USA) was used to measure the luminescence intensity. The raw data were converted to ATP concentrations using the standard ATP calibration.

[8] = test system: K562/A02 cells; set-up: method as in PMID 29453043; details: cited from earlier work

Compound: COc1cccc2c1C(=O)c1c(O)c3c(c(O)c1C2=O)C[C@@](O)(C(=O)CO)C[C@@H]3O[C@H]1C[C@H](N)[C@H](O)[C@H](C)O1 [DOX, doxorubicin]
DOX that underwent efflux [1]: about 90%

AUC(0-t) ([4]; 2 mg/kg MTO, n = 6, read-out: AUC0–24 of MTO): 1180 ± 150 ng·h/mL
Cmax ([4]; 2 mg/kg MTO, n = 6, read-out: Cmax of MTO): 3450 ± 580 ng/mL
half-life ([4]; 2 mg/kg MTO, n = 6, read-out: T1/2 of MTO (converted)): 1.53 ± 0.33 h
time post injection after which no drug was observed in plasma [4]: 6 h
IC50 ([6]; n = 3, concentration of MTO alone or in the combination, read-out: IC50 MTO): 48.2 µg/mL
Compound: Cl.Cl.O=C1c2c(O)ccc(O)c2C(=O)c2c(NCCNCCO)ccc(NCCNCCO)c21 [MTO, 1,4-dihydroxy-5,8-bis[[2-[(2-hydroxyethyl)amino]ethyl]amino] anthraquinone dihydrochloride]
body weight of mice [2]: decreased remarkably
IC50 K562 ([3]; 48 h): 5.025 µg/mL
IC50 [3]: 5.02 µg/mL
IC50 ([5]; 48 h): 48.2 µg/mL
cell survival rate of K562/DOX cells ([5]; concentration of MTO 10 μg/mL, 48 h): 81.43%
survival ratio in K562/DOX cells ([5]; concentration of MTO 80 μg/mL, 48 h): 24.06%
IDR (index of drug resistance) ([5]; from IC50 in K562/DOX and K562 cells): 9.59

AUC(0-t) ([4]; 4 mg/kg βE, n = 6, read-out: AUC0–24 of βE): 4860 ± 1760 ng·h/mL
Cmax ([4]; 4 mg/kg βE, n = 6, read-out: Cmax of βE): 6680 ± 1210 ng/mL
half-life ([4]; 4 mg/kg βE, n = 6, read-out: T1/2 of βE (converted)): 2.9 ± 0.45 h
time post injection after which no drug was observed in plasma [4]: 12 h
IC50 ([6]; n = 3, concentration of βE alone or in the combination, read-out: IC50 βE): 140 µg/mL
Compound: C=CC1(C)CCC(C(=C)C)CC1C(=C)C (stereo not shown) [βE, 1-methyl-1-vinyl-2,4-diisopropenyl-cyclohexane]
IC50 [3]: 122 µg/mL (≈ 598 µM)
IC50 ([5]; 48 h): 140 µg/mL (≈ 687 µM)
effect on intracellular ATP [7]: significant inhibitory capacity

Compound: ethyl lucidenates-A
reversal of resistance of K562/A02 cells to vincristine [8]: 7.59 fold
